Entries after “also recorded” stand apart in the source; their conditions may differ.
Tests used:
CCRF-CEM = assay: viability of CCRF-CEM acute leukemia cells; assay type: cell-based; conditions: Homo sapiens, Andrographolide (50 μM) alone, read-out: cell viability
Protocol: (§1) FIG. 3. […] Andrographolide (50 μM) alone reduced cell viability to 54.3±2.8% in CCRF-CEM cells and to 68.5±1.4%. *** =P<0.001.
(§2) Andrographolide (50 μM) and Frondoside A (between 1 and 3 mM) was assayed for anticancer effects through determining cell viability of the two human, acute leukemia cell lines CCRF-CEM and THP-1. […] Andrographolide (50 μM) alone reduced cell viability to 54.3±2.8% in CCRF-CEM cells and to 68.5±1.4%. (FIG. 3)

THP-1 = assay: viability of THP-1 acute leukemia cells; assay type: cell-based; conditions: Homo sapiens; Andrographolide (50 μM) alone; second cell line not named in the sentence (THP-1)
Protocol: as §1, §2

[1] = test system: AsPC-1 human pancreatic cancer cells; assay: viability of AsPC-1 pancreatic cancer cells; assay type: cell-based; conditions: for enhancing effect of Andrographolide on the response: in the presence of Andrographolide; for enhancing effect of Andrographolide on the response / reduction in viability: AsPC-1 (FIG. 6); for comparison of effects on cell viability / reduction in viability: single agents; for comparison of effects on cell viability: AsPC-1 (FIG. 5)
Protocol: Andrographolide at 1 mM and Frondoside A (between 1 mM and 3 mM) were assayed for anticancer effects on the viability of the two human pancreatic cancer cell lines, AsPC-1 and S2013.

[2] = test system: HT29 human colonic cancer cells; assay: viability of HT29 colonic cancer cells; conditions: HT29 (FIG. 7); for enhancing effect of Andrographolide on the response: in the presence of Andrographolide; for reduction in viability: single agents
[3] = mice; cited from earlier work
PAK-1 kinase = PAK-1 kinase (Homo sapiens, UniProt Q13153); conditions: in vitro; cited from earlier work
[4] = pharmacokinetics study by oral route, LC/MS/MS detection in the blood; assay type: in vivo, humans
Protocol: In a pharmacokinetics and pharmacodynamics study of Frondoside A by oral route in humans, as are known to those skilled in the arts, dosage of 10 milligrams of Frondoside A is delivered in an enteric coated gelatin capsule, as are known to those skilled in the arts and is detected by LC/MS/MS in the blood up to 20 hours later. In a pharmacokinetics and pharmacodynamics study in a huma of Frondoside A by oral route in humans, a dosage of 10 milligrams of Frondoside A in a capsule without the benefit of enteric coated capsule delivery, is not detected by LC/MS/MS in the blood up to 20 hours later.

[5] = lack of change in CBC, liver function tests, body weight; cited from earlier work

PAK-1 kinase, sequence (Q13153 whole entry): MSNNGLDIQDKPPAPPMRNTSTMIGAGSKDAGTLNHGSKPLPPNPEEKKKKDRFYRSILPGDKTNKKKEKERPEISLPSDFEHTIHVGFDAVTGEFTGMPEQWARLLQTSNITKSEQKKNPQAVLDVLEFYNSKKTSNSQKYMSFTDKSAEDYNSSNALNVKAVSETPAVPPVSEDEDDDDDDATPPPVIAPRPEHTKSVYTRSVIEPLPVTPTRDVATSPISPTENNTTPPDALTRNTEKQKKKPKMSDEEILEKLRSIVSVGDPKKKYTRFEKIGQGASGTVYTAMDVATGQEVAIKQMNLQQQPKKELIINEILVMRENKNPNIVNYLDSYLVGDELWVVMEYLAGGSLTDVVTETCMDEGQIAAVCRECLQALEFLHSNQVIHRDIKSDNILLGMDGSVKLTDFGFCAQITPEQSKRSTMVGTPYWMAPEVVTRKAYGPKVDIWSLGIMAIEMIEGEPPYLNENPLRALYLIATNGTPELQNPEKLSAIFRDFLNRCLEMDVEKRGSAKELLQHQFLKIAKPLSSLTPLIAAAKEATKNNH

SMILES	enhancing effect of Andrographolide on the response [1]	comparison of effects on cell viability [1]	reduction in viability [1]	enhancing effect of Andrographolide on the response [2]	reduction in viability [2]	also measured
C=C1CC[C@@H]2[C@](C)(CO)[C@H](O)CC[C@@]2(C)[C@@H]1C/C=C1/C(=O)OC[C@H]1O [Andrographolide]						viability at 50 µM (CCRF-CEM): 54.3 ± 2.8%; viability at 50 µM (THP-1): 68.5 ± 1.4%
CCn1c(=O)c(-c2ccc(-c3cncs3)cc2Cl)cc2cnc(Nc3ccc(N4CCN(C)CC4)cc3)nc21 [FRAX597]	no enhancing effect; also recorded: tendency of the reduced effectiveness	less potent anti-cancer compounds	dose responsive reduction in viability	no enhancing effect; also recorded: tendency of the reduced effectiveness	modest dose responsive reduction in viability	
CO[C@@H]1[C@@H](O)[C@H](O[C@@H]2[C@@H](O)[C@H](O[C@H]3[C@H](O)[C@@H](O[C@@H]4OC[C@@H](O)[C@H](O)[C@H]4O)[C@H](O[C@H]4[C@H](OC5CC[C@]6(C)[C@H]7CCC89C(=O)O[C@@](C)(CCCC(C)C)C8[C@@H](OC(C)=O)C[C@@]9(C)C7=CC[C@H]6C5(C)C)OC[C@@H](OS(=O)(=O)[O-])[C@@H]4O)O[C@@H]3C)OC[C@H]2O)O[C@H](CO)[C@H]1O.[Na+] (stereo partly drawn) [Frondoside A]						LD50 [3]: 9.9 mg/kg; PAK-1 inhibition (PAK-1 kinase): inhibitor of PAK-1 kinase; detected by LC/MS/MS in the blood up to 20 hours later ([4]; 10 milligrams in a capsule without enteric coating, human): not detected; detected by LC/MS/MS in the blood ([4]; 10 milligrams in an enteric coated gelatin capsule, humans): up to 20 hours; toxic effects at therapeutic doses [5]: does not have toxic effects at therapeutic doses; LD50 relative to the dose used therapeutically (LD50 in mice): more than 1000 times
CCn1c(=O)c(-c2ccc(-c3cncc(C)n3)cc2Cl)cc2cnc(NCCC3CCN(C)CC3)nc21 [FRAX1036]	no enhancing effect	less potent anti-cancer compounds	dose responsive reduction in viability	no enhancing effect	modest dose responsive reduction in viability	

Reference: patent US20200054657A1, “Compositions of Matter and Methoods to Treat Cancer” (priority 2018, published 2020)
